Reference: patent US11850325B2, “Injectable, bioadhesive cryogel scaffolds for biomedical uses” (Northeastern University, priority 2019, dated 2023)

Details: mouse
Protocol: All animal experiments were reviewed and approved by Institutional Animal Care and Use Committee (ICAUC; protocol 15-1248R) at Northeastern University (Boston, MA, USA). […] Anesthesia was achieved by isoflurane (2.5%) inhalation, followed by SC buprenorphine (0.02-0.05 mg/kg) administration. After inducing anesthesia, cryogels (4% total polymer concentration (w/v), 4×4×1 mm) were implanted via injection using a sterile 18-gauge needle.
The cryogels sterilized in 70% ethanol (v/v) for 20 minutes and under UV light. Cryogels were loaded into sterile syringes and sterile 18G needles. […] After 21 days post-implantation, animals were euthanized and the cryogels were retrieved along with the surrounding tissues for histological assessment, and placed in cold DPBS. Hydrogels used for biodegradation studies were thoroughly washed in distilled water, and excess tissue was carefully removed under a dissection microscope.
After explantation, samples were fixed in paraformaldehyde (4% v/v)) for 4 h, followed by overnight incubation in 30% sucrose (30% w/v) at 4° C. Samples were then embedded in OCT and flash frozen in liquid nitrogen. Frozen samples were sectioned using a Leica Biosystems CM3050 S Research Cryostat. 14-μm cryosections were obtained and mounted in positively charged slides using DPX mountant medium (Sigma). Slides were then processed for hematoxylin and eosin staining (Sigma) according to instructions from the manufacturer. Immunohistofluorescent staining was performed on mounted cryosections as previously reported.^15 Anti-CD3 [SP7] (ab16669), anti-CD206 (ab125212), anti-F480 were used as primary antibodies, and an Alexa Fluor 594-conjugated secondary antibody (Invitrogen) was used for detection. All sections were counterstained with DAPI (Invitrogen), and visualized on an AxioObserver Z1 inverted microscope.
In vivo injectability, bioadhesion, and immunohistology. Lastly, we characterized the in vivo biodegradation of HAGM and HPD cryogels, including their interactions with native tissues via subcutaneous implantation in a murine animal model. Sterile composite cryogels (HAGM and HPD, 4×4×1 mm) were suspended in 0.2 mL of PBS and were injected subcutaneously in the backs of C57BL/6J mice. After 21 days post-implantation, the mice were euthanized prior to cryogel retrieval, along with adjacent tissue. […] Explanted samples were then flash-frozen at an optimal cutting temperature (OCT) compound, cryosectioned into 14-μm slices, and mounted onto glass slides for histological examination.

With hyaluronic acid methacrylate [HAGM] the “H&E staining, cell migration into explanted cryogels” value (in vivo) was “migration of predominantly non-inflammatory cells”, the “lymphocyte/leukocyte infiltration (CD3)” value (in vivo) was “no significant local lymphocyte infiltration” and the “macrophage infiltration (CD206 and F480)” value (in vivo) was “some macrophages”. For the same substance, the “tissue integration and immunocytotoxicity” value (in vivo, sc) was “high tissue integration with no immunocytoxicity” and the “in vivo biodegradation (visual inspection)” value (sc) was “no biodegradation”.
